Assay results: PMC10222548, “Semisynthesis, Biological Evaluation and Molecular Docking Studies of Barbatic Acid Derivatives as Novel Diuretic Candidates” (Molecules, 2023)
Like-named read-outs stand apart in the source and are kept apart here.

Legend:
[1] = tested on: C2O4^2− transport, MDCK cells; test: In vitro litholytic activity: C2O4^2− transport inhibition, Transwell chamber with MDCK cells; format: cell-based, canine; settings: Canis lupus familiaris; 100 μmol/L, MDCK cells in Transwell; mean ± SD of three replicates; read-out: Transport Inhibition Rate (%) C2O4^2−
Protocol: (§1) On the other hand, all compounds had little inhibitory effect on Ca^2+ transport. The structure–activity relationships (SARs) were also observed. […] On the other hand, the introduction of the benzyl group to the R^1 or R^2 of barbatic acid could not lead to more promising compounds, such as 6a, 6n, 6u, 6b′, and 6i′–p′.
(§2) Logarithmic-phase DMCK cells were inoculated in the upper chamber of a Transwell plate (4 × 10^4 cells/well). Then, 800 µL of complete culture medium was added to the lower chamber, and the cells were incubated for 24 h until they adhered to the wall. The resistance value of the upper chamber cells was measured one by one at 37 °C (R = (Rcell − Rblank) × 0.04π). When the resistance value of the upper chamber cells was ≥300 Ω cm^2, the upper chamber liquid was discarded for drug administration. A control group (given physiological saline) and an experimental group (1, 6a–6p′, 100 μmol/L) were set up, and 100 µL of each drug was administered per well, followed by continued incubation for 24 h. Then, the upper and lower chamber liquids were discarded, and 200 µL of CaC2O4 (30 mmol/L) solution was added to the upper chamber, and 800 µL of PBS solution was added to the lower chamber for continued incubation. At 0.5, 1, 2, and 3 h, 50 µL of the lower chamber liquid was taken and then tested using the Ca^2+ and C2O4^2− detection kits and the following detection methods. The transport inhibition rate (%) = (ODblank − ODexperimental)/ODblank × 100%.

[2] = tested on: MDCK cells; test: MTT cytotoxicity assay on MDCK cells; format: cell-based, canine; settings: Canis lupus familiaris, 100 μmol/L, 24 h, mean ± SD of three replicates, read-out: Growth Inhibition Rate (%)
Protocol: First, we used the MTT method to perform cytotoxicity of barbatic acid derivatives (1, 6a–6p′) on MDCK cells at the concentration of 100 μmol/L, and the results are shown in Table 1.
The MTT assay was used to evaluate the cytotoxicity of the target compounds on DMCK cells. Logarithmic-growth-phase DMCK cells were seeded in a 96-well plate (10^4 cells/well) and incubated in a cell culture incubator for 24 h. The culture medium was then removed and replaced with a drug-containing medium for the treatment groups (1, 6a–6p′, 100 μmol/L), normal saline for the control group, or hydrochlorothiazide (100 μmol/L) for the positive control group. Each well was treated with 100 µL of the respective solution and incubated for an additional 24 h. The culture medium was then removed and replaced with a DMEM solution containing 20 µL of MTT (5 mg/mL). After incubating for 4 h, the liquid in each well was removed and replaced with 150 µL of DMSO, which was shaken for 10 min to ensure thorough mixing. The absorbance at 490 nm was measured to determine the optical density (OD) of each well. Cell growth inhibition rate (%) = (ODBlank − ODExperimental)/ODBlank × 100%.

[3] = tested on: Na^+ transport, MDCK cells; test: In vitro diuretic activity: Na^+ transport inhibition, Transwell chamber seeded with MDCK cells; format: cell-based, canine; settings: for inhibition at 100 µM: Canis lupus familiaris, MDCK
Description: (§3) The traditional methods for screening diuretic drugs are mostly in vivo experiments with mice, which have a long experimental cycle and are not suitable for screening massive compounds. As we know, the generation and excretion of urine involve two processes: glomerular filtration and tubular reabsorption. Reabsorption refers to the process in which the renal tubular epithelial cells transport water and certain solutes from the tubular fluid (urine) partially or entirely back into the bloodstream. Then, 99% of the water in the original urine filtered by the glomerulus is reabsorbed, and the transport of Na^+ and Cl^− plays an important role in this process. Thiazide and furosemide diuretics exert their diuretic effects by inhibiting the transport of Na^+ and Cl^−, which affects the tubular reabsorption of the original urine. Based on this principle, we established a new type of cell screening model for diuretic active drugs. Madin–Darby canine kidney (MDCK) cells were inoculated into a Transwell chamber to simulate the renal tubules. This cell model could transport and absorb external NaCl, simulating the reabsorption phenomenon. […] The effectiveness of this model was confirmed by the validation of hydrochlorothiazide, which is a commercially available diuretic drug and could inhibit the transport of Na^+ and Cl^− in renal tubules.
(§4) Generally, the transport of Na^+ and Cl^− plays an important role in glomerular filtration and tubular reabsorption. […] For example, inhibition rates of transport of 6a and 6c were over 30%, and had better inhibitory ability than barbatic acid. […] When ethyl, propyl, and benzyl were substituted on R^1, the introduction of any group could not enhance the inhibitory activity of barbatic acid, such as 6h–u and 6j′–6p′.
(§5) Log-phase MDCK cells were seeded in the upper chambers of Transwell plates (4 × 10^4 cells/well), and 800 µL of complete culture medium was added to the lower chambers. After 24 h of incubation at 37 °C, the electrical resistance of the upper chamber cells was measured one by one (R = (Rcell − Rblank) × 0.04π). When the electrical resistance of the upper chamber cells reached ≥300 Ω cm^2, the upper chamber medium was removed and replaced with the drug solution. The blank group (given normal saline), the experimental group (1, 6a–6p′, 100 μmol/L), and the hydrochlorothiazide group (100 μmol/L) were set, and each well was treated with 100 µL of the corresponding solution. The cells were then further incubated for 24 h. After that, the upper and lower chamber fluids were removed, and 200 µL of NaCl solution (15 mg/mL) was added to the upper chamber, while 800 µL of DMEM was added to the lower chamber for continued incubation. At 0.5, 1, 2, and 3 h, 50 µL of the lower chamber fluid was taken and the OD values were measured using Na^+ and Cl^− detection kits. The transport inhibition rate (%) was calculated as follows: transport inhibition rate (%) = (ODblank − ODexperimental)/ODblank × 100%.

[4] = tested on: Cl^− transport, MDCK cells; test: In vitro diuretic activity: Cl^− transport inhibition, Transwell chamber seeded with MDCK cells; format: cell-based, canine; settings: Canis lupus familiaris, read-out: Transport Inhibition Rate (%) Cl^−
Description: as §3, §4, §5

[5] = tested on: Ca^2+ transport, MDCK cells; test: In vitro litholytic activity: Ca^2+ transport inhibition, Transwell chamber with MDCK cells; format: cell-based, canine; settings: Canis lupus familiaris, 100 μmol/L, mean ± SD of three replicates, read-out: Transport Inhibition Rate (%) Ca^2+
Protocol: as §1, §2

[6] = 100 μmol/L, MDCK cells in Transwell, mean ± SD of three replicates, negative = promotion, read-out: Transport Inhibition Rate (%) Na^+
[7] = 100 μmol/L, MDCK cells in Transwell, mean ± SD of three replicates, negative = promotion

SMILES	inhibition at 100 µM [1] [%]	inhibition at 100 µM [2] [%]	inhibition at 100 µM [3, 6] [%]	inhibition at 100 µM [4, 7] [%]	melting point [°C]	inhibition at 100 µM [5] [%]	Transport Inhibition Rate (%) Na^+ [3, 7] [%]	Na^+ transport inhibition rate at 1, 2, and 3 h ([3]; evaluated at 1, 2, and 3 h (Figure 3))	inhibition at 100 µM ([3]; read-out: Transport Inhibition Rate (%) Na^+, 100 μmol/L, MDCK cells in Transwell, mean ± SD of three replicates, negative = promotion) [%]	inhibition at 100 µM ([4]; MDCK) [%]
Cc1cc(OC(=O)c2c(C)cc(OC(C)C)c(C)c2O)c(C)c(O)c1C(=O)OCC#N [6a′, 4-((cyanomethoxy)carbonyl)-3-hydroxy-2,5-dimethylphenyl 2-hydroxy-4-isopropoxy-3,6-dimethylbenzoate]	-13.2 ± 1.67	< 0	-15.8 ± 4.85	-10 ± 1.95	155 to 158	-0.91 ± 0.11				
Cc1cc(OC(=O)c2c(C)cc(OC(C)C)c(C)c2O)c(C)c(O)c1C(=O)OCc1ccccc1 [6b′, benzyl 2-hydroxy-4-(2-hydroxy-4-isopropoxy-3,6-dimethylbenzoyloxy)-3,6-dimethylbenzoate]	-20.6 ± 1.31	< 0	> 30	15.9 ± 0.25	83 to 86	0.73 ± 0.08	33.08 ± 0.35	above 20%		
C=CCOc1cc(C)c(C(=O)Oc2cc(C)c(C(=O)OCC)c(O)c2C)c(O)c1C [6d′, 4-(ethoxycarbonyl)-3-hydroxy-2,5-dimethylphenyl 4-(allyloxy)-2-hydroxy-3,6-dimethylbenzoate]	0.52 ± 1.86	1.42	-7.24 ± 0.75	-5.06 ± 0.35	116 to 120	2.04 ± 0.03				
C=CCOc1cc(C)c(C(=O)Oc2cc(C)c(C(=O)OCCC)c(O)c2C)c(O)c1C [6e′, 3-hydroxy-2,5-dimethyl-4-(propoxycarbonyl)phenyl 4-(allyloxy)-2-hydroxy-3,6-dimethylbenzoate]	5.77 ± 3.15	< 0	2.79 ± 0.25	-12.9 ± 0.85		2.04 ± 0.08				
C=CCOC(=O)c1c(C)cc(OC(=O)c2c(C)cc(OCC=C)c(C)c2O)c(C)c1O [6g′, allyl 4-(4-(allyloxy)-2-hydroxy-3,6-dimethylbenzoyloxy)-2-hydroxy-3,6-dimethylbenzoate]	-11.3 ± 1.9	< 0	5.29 ± 0.15	18.6 ± 2.2	110 to 113	2.79 ± 0.13				
C=CCOc1cc(C)c(C(=O)Oc2cc(C)c(C(=O)OCC#N)c(O)c2C)c(O)c1C [6h′, allyl 4-((cyanomethoxy)carbonyl)-3-hydroxy-2,5-dimethylphenyl 4-(allyloxy)-2-hydroxy-3,6-dimethylbenzoate]	10.7 ± 1.41	< 0	-14.4 ± 2.4	0.62 ± 0.7	124 to 127	-0.38 ± 0.16				
C=CCOc1cc(C)c(C(=O)Oc2cc(C)c(C(=O)OCc3ccccc3)c(O)c2C)c(O)c1C [6i′, benzyl 4-(4-(allyloxy)-2-hydroxy-3,6-dimethylbenzoyloxy)-2-hydroxy-3,6-dimethylbenzoate]	11.4 ± 1.13	2.43 ± 0.3	-12.9 ± 1.6	-8.43 ± 2.85	75 to 78	2.68 ± 0.11				
COC(=O)c1c(C)cc(OC(=O)c2c(C)cc(OCc3ccccc3)c(C)c2O)c(C)c1O [6j′, 3-hydroxy-4-(methoxycarbonyl)-2,5-dimethylphenyl 4-(benzyloxy)-2-hydroxy-3,6-dimethylbenzoate]	-1.79 ± 3.79	< 0	-5.13 ± 0.25	0.62 ± 0.8	131 to 134	0				
CCOC(=O)c1c(C)cc(OC(=O)c2c(C)cc(OCc3ccccc3)c(C)c2O)c(C)c1O [6k′, 4-(ethoxycarbonyl)-3-hydroxy-2,5-dimethylphenyl 4-(benzyloxy)-2-hydroxy-3,6-dimethylbenzoate]	10.3 ± 2.11	1.45 ± 0.1	14.1 ± 3.2	-19.6 ± 2.4	123 to 126	1.34 ± 0.1				
CCCOC(=O)c1c(C)cc(OC(=O)c2c(C)cc(OCc3ccccc3)c(C)c2O)c(C)c1O [6l′, 3-hydroxy-2,5-dimethyl-4-(propoxycarbonyl)phenyl 4-(benzyloxy)-2-hydroxy-3,6-dimethylbenzoate]	16.5 ± 4.38	2.11 ± 0.9	-18.2 ± 0.2	-2.92 ± 2.15	115 to 118	-2.68 ± 0.39				
Cc1cc(OCc2ccccc2)c(C)c(O)c1C(=O)Oc1cc(C)c(C(=O)OC(C)C)c(O)c1C [6m′, 3-hydroxy-4-(isopropoxycarbonyl)-2,5-dimethylphenyl 4-(benzyloxy)-2-hydroxy-3,6-dimethylbenzoate]	2.28 ± 1.34	< 0	-0.36 ± 0.4	-4.93 ± 2.95	135 to 138	-2.06 ± 0.09				
C=CCOC(=O)c1c(C)cc(OC(=O)c2c(C)cc(OCc3ccccc3)c(C)c2O)c(C)c1O [6n′, allyl 4-(4-(benzyloxy)-2-hydroxy-3,6-dimethylbenzoyloxy)-2-hydroxy-3,6-dimethylbenzoate]	-29.4 ± 3.89	< 0	-1.85 ± 0.8	-13 ± 0.15	127 to 130	0.1 ± 0.3				
NS(=O)(=O)c1cc2c(cc1Cl)NCNS2(=O)=O [Hyd, hydrochlorothiazide, reference compound]		< 0							25.1 ± 0.85	19.7 ± 1
